# Experimental data as given in PubChem BioAssay (NCI).
# “And” between values parts separate entries of the source, which are not always exact repeats. Equal values may be shown once.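 Briefly, cells in 96-well plates were exposed to five compound concentrations for 48 h, and endpoints were estimated by linear interpolation. GI50 is the concentration that inhibits growth by half. The concentration for full growth arrest is given as TGI.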
# How the values were obtained:
# Assay in all cases: NCI tumour cell line growth inhibition, 48 h
# EKVX NSCLC = system: EKVX NSCLC
# HCT-116 colon = system: HCT-116 colon
# HCT-15 colon = system: HCT-15 colon
# HOP-92 NSCLC = system: HOP-92 NSCLC
# HS 578T breast = system: HS 578T breast
# K-562 leukemia = system: K-562 leukemia
# NCI-H226 lung = system: NCI-H226 lung
# SK-OV-3 ovarian = system: SK-OV-3 ovarian
# U251 CNS = system: U251 CNS
# UACC-257 melanoma = system: UACC-257 melanoma
SMILES,GI50 (EKVX NSCLC) [µM],TGI (EKVX NSCLC) [µM],GI50 (HCT-116 colon),TGI (HCT-116 colon) [µM],GI50 (HCT-15 colon),TGI (HCT-15 colon) [µM],GI50 (HOP-92 NSCLC) [µM],TGI (HOP-92 NSCLC) [µM],GI50 (HS 578T breast),TGI (HS 578T breast) [µM],GI50 (K-562 leukemia),TGI (K-562 leukemia) [µM],GI50 (NCI-H226 lung),TGI (NCI-H226 lung) [µM],GI50 (SK-OV-3 ovarian),TGI (SK-OV-3 ovarian) [µM],GI50 (U251 CNS),TGI (U251 CNS) [µM],GI50 (UACC-257 melanoma) [µM],TGI (UACC-257 melanoma) [µM]
O=C(Nc1cccc2ccccc12)c1cc2ccccc2cc1O,1.77,6.18,2.85 µM,12,3.03 µM,11.6,0.969,4.25,1.74 µM,6.43,1.95 µM,23.4,2.5 µM,9.42,2.5 µM,7.55,1.56 µM,4.72,1.6,5.03
Cc1cc(Cl)ccc1Nc1nc(C(F)(F)F)ccc1C(=O)N/N=C/c1c(Cl)cccc1Cl,0.211,2.97,0.287 µM,,0.145 µM,> 100,0.221,0.664,0.63 µM,> 30,0.253 µM,,0.243 µM,1.74,0.486 µM,3.29,0.245 µM,> 70.8,0.393,> 100
COc1cc([C@@H]2c3cc4c(cc3[C@H](O)[C@H]3COC(=O)[C@@H]23)OCO4)cc(OC)c1OC,0.434,> 100,0.406 µM and 0.185 µM,> 10,0.415 µM and 0.327 µM,> 100,,> 88.6,0.298 µM and 0.293 µM,> 5.83,0.349 µM and 0.405 µM,> 100,0.754 µM and 0.602 µM,> 100,0.529 µM and 0.301 µM,,0.46 µM and 0.382 µM,> 100,> 100,> 100
COc1cc2c3c(n(CCCN4CCOCC4)c(=O)c2cc1OC)-c1cc2c(cc1C3=O)OCO2,50.9,> 100,1.8 µM,17.4,17.4 µM,> 100,3.21,> 91.5,71.3 µM,> 100,4.54 µM,> 100,4.6 µM,> 81.8,> 77.6 µM,> 100,3.56 µM,> 91.6,> 51.5,> 100
C(#Cc1ccccc1C#Cc1ccccn1)c1ccc(OCCCCCCOc2ccc(C#Cc3ccccc3C#Cc3ccccn3)cc2)cc1,5.09,22.9,6.83 µM,15.9,1.76 µM,9.37,4.91,12,5.79 µM,15.7,1.81 µM,18.5,4.33 µM,13.3,7.87 µM,20.1,4.55 µM,10.9,5.92,12.7
Cn1c2ccccc2c(=S)c2cc(NC(=O)CCCCC(=O)Nc3ccc4c(c3)c(=S)c3ccccc3n4C)ccc21,,> 100,,> 100,,> 100,,> 100,,> 100,,> 100,,> 100,,> 100,,> 100,,> 100
O=C(O)c1cn(C2CC2)c2cc(N3CCN(C(=O)Nc4nc(-c5ccc(Cl)cc5)cs4)CC3)c(F)cc2c1=O,2.97,> 100,1.12 µM,> 100,1.71 µM,> 100,1.85,7.63,1.91 µM,66.1,2.24 µM,> 100,3.23 µM,87.7,2.35 µM,8.12,1.38 µM,16.1,2.92,8.24
CCOC(=O)C1=C(N)Oc2cc(OC)ccc2C1c1ccc(F)c(F)c1 (stereo not given),3.67,17.9,1.25 µM,16.1,0.503 µM,14.3,3.54,19.4,2.48 µM,21.3,,,12.9 µM,32.7,3.66 µM,16.4,1.84 µM,14.3,11.5,24
CNC(=S)N/N=C(/C)CCC/C(C)=N/NC(=S)NC,,> 100,,> 100,,> 100,,> 100,,> 100,,> 100,,> 100,,> 100,,> 100,,> 100
CC(=O)/C=C/c1ccc(N(C)Cc2ccc(C(C)(C)C)cc2)cc1,84.4,392,80.6 µM,290,89.7 µM,327,129,267,193 µM,568,,,149 µM,315,217 µM,709,125 µM,268,143,335
CCC1=C[C@H]2CN(CCc3c([nH]c4ccccc34)[C@@](C(=O)OC)(c3cc4c(cc3OC)N(C)[C@H]3[C@@](O)(C(=O)OC)[C@H](OC(C)=O)[C@]5(CC)[C@@H]6C[C@@H]6CN6CC[C@]43[C@@H]65)C2)C1,0.0966,> 25,0.0185 µM,2.61,0.0738 µM,3.31,0.109,1.76,0.053 µM,4.16,,,2.65 µM,10.3,0.0358 µM,12.2,0.0309 µM,3.22,3.42,7.33
O=C(/C=C/c1ccc2c(c1)OCO2)c1ccccc(=O)c1O,,> 100,,> 100,,> 100,,72.9,,> 100,,> 100,,> 100,,,,> 100,,53.1
C[C@H]1[C@H](C)CC[C@]2(C(=O)O)CC[C@]3(C)C(=CC[C@@H]4[C@@]5(C)CC[C@H](OC(=O)/C=C\c6ccc(O)cc6)C(C)(C)[C@@H]5CC[C@]43C)[C@H]12,3.11,13.7,1.53 µM,3.98,3.08 µM,12.7,4.25,19.2,3.1 µM,22.6,,,4.55 µM,26.3,11.9 µM,26.5,2 µM,9.41,1.46,8.49
C#CCOc1c(OC)cc(C(=O)/C(C)=C/c2cccc(N=[N+]=[N-])c2)cc1OC,0.517,> 100,0.0468 µM,10.8,0.0499 µM,> 100,0.196,9.11,0.25 µM,> 100,0.0383 µM,> 100,15 µM,> 100,0.674 µM,> 100,0.0793 µM,> 100,,
